Experimental data: PubChem BioAssay (NCI)
“And” between values parts separate entries of the source, which are not always exact repeats. Equal entries are not always repeated.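 Results reflect a 48-hour exposure of cells in 96-well plates to compound at five concentrations. GI50: concentration for 50% inhibition of growth. The concentration for full growth arrest is given as TGI.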

Key:
Assay in all cases: NCI tumour cell line growth inhibition, 48 h
NCI-H460 lung = test system: NCI-H460 lung
HT29 colon = test system: HT29 colon
T-47D breast = test system: T-47D breast
786-0 renal = test system: 786-0 renal
NCI-H522 lung = test system: NCI-H522 lung
MDA-MB-231 breast = test system: MDA-MB-231 breast
NCI-H226 lung = test system: NCI-H226 lung
BT-549 breast = test system: BT-549 breast
TK-10 renal = test system: TK-10 renal
HCT-15 colon = test system: HCT-15 colon
OVCAR-3 ovarian = test system: OVCAR-3 ovarian
K-562 leukemia = test system: K-562 leukemia
HOP-62 NSCLC = test system: HOP-62 NSCLC
PC-3 prostate = test system: PC-3 prostate
HL-60(TB) leukemia = test system: HL-60(TB) leukemia
IGROV1 ovarian = test system: IGROV1 ovarian
KM12 colon = test system: KM12 colon

Row | SMILES | TGI (NCI-H460 lung) | TGI (HT29 colon) | TGI (T-47D breast) | TGI (786-0 renal) | TGI (NCI-H522 lung) | TGI (MDA-MB-231 breast) | TGI (NCI-H226 lung) | TGI (BT-549 breast) | TGI (TK-10 renal) | TGI (HCT-15 colon) | TGI (OVCAR-3 ovarian) | TGI (K-562 leukemia) | TGI (HOP-62 NSCLC) | TGI (PC-3 prostate) | TGI (HL-60(TB) leukemia) | TGI (IGROV1 ovarian) | TGI (KM12 colon) | GI50 (OVCAR-3 ovarian) | GI50 (KM12 colon)
1 | Cc1ccc2c(=O)c(-c3nnc(N)s3)c[nH]c2n1 | > 100 µM | > 100 µM | > 100 µM | > 100 µM | > 100 µM | > 100 µM | > 100 µM | > 100 µM | > 100 µM | > 100 µM | > 100 µM | > 100 µM | > 100 µM | > 100 µM | > 100 µM | > 100 µM | > 100 µM | – | –
2 | CC(=O)Nc1cc2c(cc1O)CC[C@@H]1[C@@H]2CC[C@]2(C)[C@@H](O)CC[C@@H]12 | > 100 µM | > 100 µM | 95.8 µM | > 100 µM | 81.5 µM | > 100 µM | > 100 µM | 86.3 µM | > 100 µM | 54.5 µM | > 100 µM | > 100 µM | > 100 µM | > 100 µM | > 100 µM | > 100 µM | 31.4 µM | 9.2 µM | –
3 | COc1ccc(-n2c(C)nc3ccc(NC4OCC(O)C(O)C4O)cc3c2=O)cc1 (centres undefined) | > 100 µM | 68.5 µM and 80.2 µM | > 100 µM | > 100 µM | 72 µM and 55 µM | > 100 µM | > 100 µM | > 100 µM | > 100 µM | 65.8 µM and 80.8 µM | > 100 µM | 87.2 µM and 95.1 µM | > 100 µM | > 100 µM | 62.4 µM and 68.2 µM | > 100 µM | > 100 µM | – | 36.5 µM and > 100 µM
4 | CC(C)(C)OC(=O)NC(Cc1cnc[nH]1)C(=O)N1CCCC1C(N)=O (centres undefined) | > 100 µM | > 100 µM | > 100 µM | > 100 µM | > 100 µM | > 100 µM | > 100 µM | > 100 µM | > 100 µM | > 100 µM | > 100 µM | > 100 µM | > 100 µM | > 100 µM | > 100 µM | > 100 µM | > 100 µM | – | –
5 | CC(=O)NCCc1c[nH]c2ccc(Cl)cc12 | > 100 µM | > 100 µM | > 100 µM | > 100 µM | > 100 µM | > 100 µM | > 100 µM | > 100 µM | > 100 µM | > 100 µM | > 100 µM | > 100 µM | > 100 µM | > 100 µM | > 100 µM | > 100 µM | > 100 µM | – | –
6 | CN(C)CCNC(=O)c1cccc2nc3cccc(F)c3nc12 | 2.73 µM | 8.34 µM | > 28.4 µM | 24.8 µM | 2.74 µM | 6.77 µM | 3.21 µM | 11.4 µM | 6.45 µM | 5.77 µM | 8.97 µM | 12.3 µM | 8.55 µM | 4.26 µM | 6.39 µM | 9.67 µM | 8.43 µM | – | –
7 | CCN(CC)C(=S)SC1CCOP(=O)(N(CCCl)CCCl)N1C (centres undefined) | 14.3 µM | > 100 µM | > 100 µM | > 80.1 µM | 2.18 µM | > 100 µM | > 97.3 µM | > 100 µM | > 100 µM | 91.5 µM | > 100 µM | 49.9 µM | > 100 µM | > 100 µM | 32.2 µM | > 53.1 µM | > 58.5 µM | – | –
8 | CN(C)CCCNc1nnc(NCCCN(C)C)c2c(=O)c3sccc3[nH]c12 | 20.7 µM | – | > 51.5 µM | > 49.1 µM | 17.3 µM | > 30.7 µM | 39.1 µM | > 79 µM | > 100 µM | > 91.5 µM | > 100 µM | > 34.7 µM | > 100 µM | > 61.4 µM | > 28.2 µM | > 100 µM | > 58.3 µM | – | –
9 | CCCN(CCCCN1C(=O)c2ccccc2C1=O)CC1COc2ccccc2O1 (centres undefined) | > 100 µM | > 100 µM | > 100 µM | > 100 µM | > 100 µM | > 100 µM | > 100 µM | > 100 µM | > 100 µM | > 100 µM | > 100 µM | > 100 µM | > 100 µM | > 100 µM | 95.9 µM | > 100 µM | > 100 µM | – | –
10 | CC1OC(OC2C(O)COC(OC3C(C)OC(OC4C(OC(=O)[C@]56CCC(C)(C)C[C@@H]5C5=CCC7[C@@]8(C)C[C@H](O)[C@H](OC9OC(CO)C(O)C(OC%10OC(CO)C(O)C(O)C%10O)C9O)[C@@](C)(CO)[C@@H]8CC[C@@]7(C)[C@]5(C)CC6)OCC(O)C4O)C(O)C3OC3OCC(O)C(O)C3O)C2O)C(O)C(O)C1O (some centres undefined) | 34.8 µM | 33.9 µM | 14 µM | 17.7 µM | 26.4 µM | 8.87 µM | 25.1 µM | 25.8 µM | 22.7 µM | 28.2 µM | 27.2 µM | > 52.3 µM | 20.3 µM | 16.1 µM | 15 µM | 24.5 µM | 33.5 µM | – | –
11 | Cc1c(CCCl)c(N=[N+]=[N-])n2c(nc3ccccc32)c1C#N | 3.32 µM | 4.52 µM | 3.18 µM | 1.63 µM | 0.44 µM | 3.16 µM | 4.29 µM | 2.1 µM | 3.02 µM | 2.72 µM | 3.15 µM | 1.48 µM | 5.01 µM | 2.72 µM | 2.6 µM | 1.64 µM | 3.27 µM | – | –
12 | N#CC(C#N)=C(N)/C(C#N)=C/c1cc(O)c(O)c(Br)c1 | > 100 µM | > 100 µM | > 100 µM | > 100 µM | > 100 µM | > 100 µM | > 79.1 µM | > 100 µM | > 100 µM | > 100 µM | 93.6 µM | > 100 µM | > 100 µM | > 100 µM | > 92.3 µM | > 100 µM | > 100 µM | – | –
13 | Cn1cc(C[C@@H](N)C(=O)O)c2ccccc21 | > 100 µM | > 100 µM | > 100 µM | > 100 µM | > 100 µM | > 100 µM | > 100 µM | > 100 µM | > 100 µM | > 100 µM | > 100 µM | > 100 µM | > 100 µM | > 100 µM | > 100 µM | > 100 µM | > 100 µM | – | –
14 | c1ccc2sc(C3(N4CCCCC4)CCCCCC3)cc2c1 | 38.6 µM | 31.7 µM | 31.6 µM | 47.4 µM | 32.8 µM | 42.1 µM | 33.7 µM | 52.7 µM | 49.2 µM | 34.8 µM | 37.2 µM | 31 µM | 60.9 µM | 29.3 µM | 11.4 µM | 52.7 µM | 31.2 µM | – | –
15 | CCN(CC)Cc1nc(C2CCC([N+](=O)[O-])O2)no1 (centres undefined) | 44.5 µM | 44.5 µM | 98 µM | > 100 µM | 31 µM | > 100 µM | > 100 µM | 56.7 µM | > 100 µM | 38.1 µM | 56.7 µM | > 100 µM | 82.7 µM | > 100 µM | 40.5 µM | > 100 µM | > 100 µM | – | –
16 | Oc1c(-c2ccccc2)sc2ccccc12 | 51.2 µM | 81.6 µM | 54.4 µM | 59 µM | > 100 µM | 29.1 µM | 64.4 µM | 89.4 µM | > 100 µM | > 100 µM | 36.2 µM | 67.5 µM | 45.8 µM | 69.1 µM | 45.4 µM | > 100 µM | 75.6 µM | – | –
17 | CCCC(=O)OC[n+]1cccc(-c2c(COC(=O)NC(C)C)c(COC(=O)NC(C)C)c3n2CCC3)c1 | > 100 µM | > 100 µM | > 100 µM | > 100 µM | 71.8 µM | > 100 µM | > 100 µM | > 100 µM | > 100 µM | > 100 µM | > 100 µM | > 100 µM | > 100 µM | > 100 µM | > 67.3 µM | > 100 µM | > 100 µM | – | –
18 | O=C(CCc1ccc(O)c(O)c1)NCCc1cc(OCc2ccccc2)cc(OCc2ccccc2)c1 | 20.2 µM | 77.8 µM | 58.2 µM | 40 µM | 4.62 µM | 48.8 µM | 48.2 µM | 20.2 µM | 41.5 µM | 11 µM | > 100 µM | > 100 µM | 37 µM | 29.8 µM | 7.27 µM | 22.5 µM | 34.7 µM | – | –
19 | CC1(C)CN=C(Nc2ccc(Cl)cc2)S1 | – | > 100 µM | > 100 µM | > 100 µM | > 100 µM | > 100 µM | > 100 µM | > 100 µM | > 100 µM | > 100 µM | > 100 µM | > 100 µM | > 100 µM | > 100 µM | > 100 µM | > 100 µM | > 100 µM | – | –
20 | CC(=O)O[C@H]1CC[C@@]2(C)C(=CC[C@@H]3[C@@H]2CC[C@]2(C)C(=N/O)/C(=C/c4ccc([N+](=O)[O-])cc4)C[C@@H]32)C1 | > 100 µM | > 100 µM | 2.46 µM | 27.3 µM | 8.94 µM | 50.1 µM | 67.7 µM | 14 µM | 55.3 µM | > 100 µM | 11.3 µM | > 100 µM | > 100 µM | > 100 µM | 66.1 µM | 55.8 µM | > 100 µM | – | –
21 | Cc1ccc(S(=O)(=O)Oc2ccc(OS(=O)(=O)c3ccc(C)cc3)c3c2C(=O)c2ccccc2C3=O)cc1 | > 100 µM | > 100 µM | > 100 µM | > 100 µM | > 100 µM | > 100 µM | > 100 µM | > 100 µM | > 100 µM | > 100 µM | > 100 µM | > 100 µM | > 100 µM | > 100 µM | > 100 µM | > 100 µM | > 100 µM | – | –
22 | O=C(OCC12CC3CC(CC(C3)C1)C2)c1ccc(NCc2cc(O)ccc2O)cc1 | 7.5 µM | 14.6 µM | 2.06 µM | 2.35 µM | 0.854 µM | 11.6 µM | 6.71 µM | 1.25 µM | 4.83 µM | 5.75 µM | 1.67 µM | > 49.2 µM | 16 µM | 4.88 µM | 15 µM | 3.21 µM | 4.52 µM | – | –
